Data on eleven compounds can be found in patent US10000471B2, “Pyrazole P38 map kinase inhibitors” (Respivert Limited, priority 2010, dated 2018).

The target in data set [1] is T1, p38 MAPKα isoform (MAPK14) (Homo sapiens, UniProt Q16539).
T1 construct: purchased Invitrogen
The experiment in a line: Enzyme inhibition assay (FRET, Z-LYTE), p38 MAPKα via MAPKAP-K2 activation. It counts as biochemical. The conditions noted are these: read-out: Enzyme Inhibition IC50 p38α. The procedure, abridged: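 Recombinant p38 MAPKα was preincubated with compound for 2 h at RT. Its activity was measured indirectly through activation/phosphorylation of downstream MAPKAP-K2, with a Z-LYTE FRET peptide read-out (coumarin/fluorescein ratio) after a 1 h development step. IC50 came from concentration-response curves of percent inhibition versus an uninhibited control.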

Data set [2] has as its system TNFα release in THP-1 cells. The data set is described as follows: LPS-induced TNFα release in THP-1 cells. It counts as cell-based, human. The settings on record: Homo sapiens. The gist of the method: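 Human monocytic THP-1 cells stimulated with 3 μg/mL E. coli LPS for 4 hr; supernatant TNFα measured by sandwich ELISA. Inhibition at each concentration versus vehicle control, IC50 from concentration-response curve.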

Data set [3] relates to TNFα release in d-U937 cells. The data set is described as follows: LPS-induced TNFα release in d-U937 cells. It is filed as cell-based, human. The conditions noted are these: Homo sapiens, dU937, relative to 10 μg/mL BIRB796, read-out: LPS/TNFα REC50 d-U937. The procedure, abridged: (§1)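 PMA-differentiated (100 ng/ml, 48–72 hr) U937 macrophage-type cells pre-incubated 2 hr with compound, then stimulated 4 hr with 0.1 μg/mL E. coli O111:B4 LPS; supernatant TNFα and IL-8 measured by sandwich ELISA. TNFα inhibition expressed relative to 10 μg/mL BIRB796, giving REC50; IL-8 inhibition versus vehicle, giving IC50.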

The subject of data set [4] is Differentiated U937 cells. The data set is described as follows: Cell viability MTT assay. It is filed as cell-based, human. The settings on record: negative = apparent increase in viability; for MTT Assay (Viability) 4 h d-U937, percentage loss of cell viability: 4 hr in 5% FCS; for MTT Assay (Viability) 24 h d-U937, percentage loss of cell viability: 24 h in 10% FCS. The gist of the method:
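Differentiated U937 cells pre-incubated with compound either 4 hr in 5% FCS or 24 h in 10% FCS, then 1 hr MTT. Formazan dissolved in DMSO, absorbance at 550 nm. Percentage viability loss relative to 0.5% DMSO vehicle; apparent increases appear as negative percentages.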

Data set [5] relates to ICAM-1 induction in BEAS2B cells. The experiment in a line: Poly I:C-induced ICAM-1 induction in BEAS2B cells. It is filed as cell-based, human. The conditions noted are these: Homo sapiens, BEAS-2B, read-out: PolyIC/ICAM1 IC50 BEAS2B. The procedure, abridged:
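Human bronchial epithelial BEAS2B cells were pre-incubated with compound for 2 hr, then transfected with 1 μg/mL poly I:C. After 18 hr, surface ICAM-1 was measured by cell-based ELISA (OD450-655) and normalized to crystal violet cell counts (OD595). IC50 came from inhibition versus vehicle across the concentration-response curve.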

A further data set addresses T2, p38 MAPKγ (MAPK12) (Homo sapiens, UniProt P53778).
T2 construct: purchased Invitrogen
T2 sequence (P53778 1-367): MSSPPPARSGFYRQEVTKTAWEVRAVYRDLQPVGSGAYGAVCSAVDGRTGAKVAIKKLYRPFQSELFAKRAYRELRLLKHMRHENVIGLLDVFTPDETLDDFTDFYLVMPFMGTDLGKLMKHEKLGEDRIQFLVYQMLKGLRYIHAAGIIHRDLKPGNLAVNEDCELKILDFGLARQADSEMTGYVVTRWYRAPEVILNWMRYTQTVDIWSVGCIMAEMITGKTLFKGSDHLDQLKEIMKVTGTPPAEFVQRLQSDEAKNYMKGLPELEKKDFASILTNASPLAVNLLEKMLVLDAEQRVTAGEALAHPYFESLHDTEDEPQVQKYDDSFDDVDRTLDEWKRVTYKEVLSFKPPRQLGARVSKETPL
The data set is described as follows: Enzyme inhibition assay (FRET, Z-LYTE), p38 MAPKγ. It counts as biochemical. The conditions noted are these: read-out: Enzyme Inhibition IC50 p38γ. The gist of the method: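 Recombinant phosphorylated p38 MAPKγ preincubated 2 h at RT with compound in HEPES buffer, then 2 μM FRET peptide and 100 μM ATP added for 1 h; protease development 1 h. Coumarin/fluorescein emission ratio gave phosphorylation; IC50 from concentration-response versus uninhibited control.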

The test system of data set [6] is IL-8 release in d-U937 cells. The experiment in a line: LPS-induced IL-8 release in d-U937 cells. It is filed as cell-based, human. The conditions noted are these: Homo sapiens, dU937. The procedure, abridged:
as §1

Molecules are shown by their SMILES.

T1 sequence (Q16539 whole entry, canonical isoform): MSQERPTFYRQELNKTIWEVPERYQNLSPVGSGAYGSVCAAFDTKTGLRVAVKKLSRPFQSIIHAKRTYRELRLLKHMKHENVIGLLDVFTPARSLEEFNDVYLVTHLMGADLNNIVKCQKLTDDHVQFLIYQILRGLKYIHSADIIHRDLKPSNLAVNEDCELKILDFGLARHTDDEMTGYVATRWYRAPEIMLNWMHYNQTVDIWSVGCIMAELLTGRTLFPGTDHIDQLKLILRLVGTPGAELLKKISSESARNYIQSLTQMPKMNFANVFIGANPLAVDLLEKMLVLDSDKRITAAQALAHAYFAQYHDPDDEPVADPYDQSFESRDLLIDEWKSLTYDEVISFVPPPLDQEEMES

On to `COc1ccc(-n2nc(C(C)(C)C)cc2NC(=O)Nc2ccc(Oc3ccnc(NC(=O)CN(C)C)c3)c(Cl)c2Cl)cc1` [Example 43, N-(4-(4-(3-(3-tert-butyl-1-(4-methoxyphenyl)-1H-pyrazol-5-yl)ureido)-2,3-dichlorophenoxy)pyridin-2-yl)-2-(dimethylamino)acetamide], for which the IC50 in data set [1] came out at 27.5 nM; in data set [2] it was 0.4 nM; in data set [5], 2.3 nM; at p38 MAPKγ (MAPK12), 78.1 nM; in data set [6], 1.3 nM. Besides, in data set [3], the EC50 was 0.9 nM. Also, the “MTT Assay (Viability) 4 h d-U937, percentage loss of cell viability” value in data set [4] was −18.7%. In data set [4], the “MTT Assay (Viability) 24 h d-U937, percentage loss of cell viability” value is reported as 79.1%.

Turning to `COCC(=O)Nc1cc(Oc2ccc(NC(=O)Nc3cc(C(C)(C)C)nn3-c3ccc(OC)cc3)c(Cl)c2Cl)ccn1` [Example 44, N-(4-(4-(3-(3-tert-butyl-1-(4-methoxyphenyl)-1H-pyrazol-5-yl)ureido)-2,3-dichlorophenoxy)pyridin-2-yl)-2-methoxyacetamide], the IC50 turned out to be 7.9 nM in data set [1]; 1.8 nM in data set [2]; 0.9 nM in data set [5]; 48.4 nM at p38 MAPKγ (MAPK12); 20.7 nM in data set [6]. For the same compound, the EC50 in data set [3] turned out to be 2.2 nM. For the same compound, the “MTT Assay (Viability) 4 h d-U937, percentage loss of cell viability” value in data set [4] is reported as −25.9%. Also, in data set [4], the “MTT Assay (Viability) 24 h d-U937, percentage loss of cell viability” value is 87.1%.

Turning to `COc1ccc(-n2nc(C(C)(C)C)cc2NC(=O)Nc2ccc(Oc3ccnc(NC(=O)CN4CCOCC4)c3)c(Cl)c2Cl)cc1` [Example 45, N-(4-(4-(3-(3-tert-butyl-1-(4-methoxyphenyl)-1H-pyrazol-5-yl)ureido)-2,3-dichlorophenoxy)pyridin-2-yl)-2-morpholinoacetamide], the IC50 in data set [1] was determined as 27.4 nM; in data set [2], 0.8 nM; in data set [5], 9 nM; at p38 MAPKγ (MAPK12) it was 84.7 nM; in data set [6], 1 nM. For the same compound, the EC50 in data set [3] amounted to 0.7 nM. The “MTT Assay (Viability) 4 h d-U937, percentage loss of cell viability” value in data set [4] is −4.8%. In addition, in data set [4], the “MTT Assay (Viability) 24 h d-U937, percentage loss of cell viability” value is recorded as 56.2%.

Regarding `CN(C)CC(=O)Nc1cc(Oc2ccc(NC(=O)Nc3cc(C(C)(C)C)nn3-c3ccc(CO)cc3)c(Cl)c2Cl)ccn1` [Example 46, N-(4-(4-(3-(3-tert-butyl-1-(4-hydroxymethylphenyl)-1H-pyrazol-5-yl)ureido)-2,3-dichlorophenoxy)pyridin-2-yl)-2-(dimethylamino) acetamide], the IC50 is 20.9 nM in data set [1]; 0.3 nM in data set [2]; 2.4 nM in data set [5]; 38.7 nM at p38 MAPKγ (MAPK12); 1.1 nM in data set [6]. Besides, the EC50 in data set [3] was 0.9 nM. The “MTT Assay (Viability) 4 h d-U937, percentage loss of cell viability” value in data set [4] is −12.6%. The “MTT Assay (Viability) 24 h d-U937, percentage loss of cell viability” value in data set [4] worked out at 82.7%.

`CN(C)CCCC(=O)Nc1cc(Oc2ccc(NC(=O)Nc3cc(C(C)(C)C)nn3-c3ccc(CO)cc3)c(Cl)c2Cl)ccn1` [Example 47, N-(4-(4-(3-(3-tert-butyl-1-(4-hydroxymethylphenyl)-1H-pyrazol-5-yl)ureido)-2,3-dichlorophenoxy)pyridin-2-yl)-4-(dimethylamino) butanamide]: the IC50 in data set [1] turned out to be 2.2 nM; in data set [2] it was 0.5 nM; in data set [5] it was 6.4 nM; at p38 MAPKγ (MAPK12), 5.9 nM; in data set [6] it was 8.2 nM. In data set [3], the EC50 was 1.6 nM. The “MTT Assay (Viability) 4 h d-U937, percentage loss of cell viability” value in data set [4] was −42.5%. Also, the “MTT Assay (Viability) 24 h d-U937, percentage loss of cell viability” value in data set [4] is 85.0%.

Take `CC(C)(C)c1cc(NC(=O)Nc2ccc(Oc3ccnc(NC(=O)CN4CCOCC4)c3)c(Cl)c2Cl)n(-c2ccc(CO)cc2)n1` [Example 48, N-(4-(4-(3-(3-tert-butyl-1-(4-hydroxymethylphenyl)-1H-pyrazol-5-yl)ureido)-2,3-dichlorophenoxy)pyridin-2-yl)-2-morpholino-acetamide]: the IC50 in data set [1] came out at 6.3 nM; in data set [2] it was 0.4 nM; in data set [5] it was 2.2 nM; at p38 MAPKγ (MAPK12) it was 22.4 nM; in data set [6], 5.1 nM. The EC50 in data set [3] came to 1.1 nM. For the same compound, the “MTT Assay (Viability) 4 h d-U937, percentage loss of cell viability” value in data set [4] turned out to be 12.5%. In addition, in data set [4], the “MTT Assay (Viability) 24 h d-U937, percentage loss of cell viability” value stood at 84.1%.

For the compound `COCC(=O)Nc1cc(Oc2ccc(NC(=O)Nc3cc(C(C)(C)C)nn3-c3ccc(CO)cc3)c(Cl)c2Cl)ccn1` [Example 49, N-(4-(4-(3-(3-tert-butyl-1-(4-hydroxymethylphenyl)-1H-pyrazol-5-yl)ureido)-2,3-dichlorophenoxy)pyridin-2-yl)-2-methoxyacetamide], the IC50 in data set [1] worked out at 16.5 nM; in data set [2], 1.2 nM; in data set [5], 1.5 nM; on p38 MAPKγ (MAPK12), 36 nM; in data set [6], 2.2 nM. Moreover, the EC50 in data set [3] worked out at 0.7 nM. In addition, the “MTT Assay (Viability) 4 h d-U937, percentage loss of cell viability” value in data set [4] is −4.8%. Besides, the “MTT Assay (Viability) 24 h d-U937, percentage loss of cell viability” value in data set [4] is 92.2%.

For `CNC(=O)Nc1cc(Oc2ccc(NC(=O)Nc3cc(C(C)(C)C)nn3-c3ccc(C)cc3)c(Cl)c2Cl)ccn1` [Example 50, 1-(3-tert-butyl-1-p-tolyl-1H-pyrazol-5-yl)-3-(2,3-dichloro-4-(2-(3-methylureido)pyridin-4-yloxy)phenyl)urea], the IC50 in data set [1] is 41.2 nM; in data set [2], 1.3 nM; in data set [5], 1.1 nM; at p38 MAPKγ (MAPK12) it was 59.2 nM; in data set [6] it was 0.6 nM. Besides, in data set [3], the EC50 was 0.2 nM. Besides, the “MTT Assay (Viability) 4 h d-U937, percentage loss of cell viability” value in data set [4] is −5.4%. Besides, the “MTT Assay (Viability) 24 h d-U937, percentage loss of cell viability” value in data set [4] worked out at 35.9%.

Consider `CNC(=O)Nc1cc(Oc2ccc(NC(=O)Nc3cc(C(C)(C)C)nn3-c3ccc(O)cc3)c(Cl)c2Cl)ccn1` [Example 51, 1-(3-tert-butyl-1-(4-hydroxyphenyl)-1H-pyrazol-5-yl)-3-(2,3-dichloro-4-(2-(3-methylureido)pyridin-4-yloxy)phenyl)urea], for which the IC50 in data set [1] was found to be 34.2 nM; in data set [2] it was 0.7 nM; in data set [5], 0.7 nM; on p38 MAPKγ (MAPK12), 174 nM; in data set [6] it was 6.8 nM. Moreover, in data set [3], the EC50 was determined as 1.2 nM. Further, the “MTT Assay (Viability) 4 h d-U937, percentage loss of cell viability” value in data set [4] is −17.3%. Further, the “MTT Assay (Viability) 24 h d-U937, percentage loss of cell viability” value in data set [4] was 57.3%.

Take `CNC(=O)Nc1cc(Oc2ccc(NC(=O)Nc3cc(C(C)(C)C)nn3-c3ccc(CO)cc3)c(Cl)c2Cl)ccn1` [Example 52, 1-(3-tert-butyl-1-(4-hydroxymethylphenyl)-1H-pyrazol-5-yl)-3-(2,3-dichloro-4-(2-(3-methylureido)pyridin-4-yloxy)phenyl)urea]: the IC50 was 16.8 nM in data set [1]; 1 nM in data set [2]; 2.4 nM in data set [5]; 32.1 nM at p38 MAPKγ (MAPK12); 1.9 nM in data set [6]. For the same compound, the EC50 in data set [3] was 0.5 nM. In addition, the “MTT Assay (Viability) 4 h d-U937, percentage loss of cell viability” value in data set [4] is given as −43.8%. Also, the “MTT Assay (Viability) 24 h d-U937, percentage loss of cell viability” value in data set [4] is recorded as 8.1%.

For the compound `CNC(=O)Nc1cc(Oc2ccc(NC(=O)Nc3cc(C(C)(C)C)nn3-c3ccc(CO)c(OC)c3)c(Cl)c2Cl)ccn1` [Example 53, 1-(3-tert-butyl-1-(4-hydroxymethyl-3-methoxy-phenyl)-1H-pyrazol-5-yl)-3-(2,3-dichloro-4-(2-(3-methylureido)pyridin-4-yloxy)phenyl)urea], the IC50 is 46.9 nM in data set [1]; 1.8 nM in data set [2]; 2.2 nM in data set [5]; 35.8 nM on p38 MAPKγ (MAPK12); 7.7 nM in data set [6]. Also, the EC50 in data set [3] was 1.3 nM. Further, the “MTT Assay (Viability) 4 h d-U937, percentage loss of cell viability” value in data set [4] is −1.1%. In addition, the “MTT Assay (Viability) 24 h d-U937, percentage loss of cell viability” value in data set [4] is recorded as 87.8%.
